This assay has as its system PANC-1 cells. The assay can be described thus: cell viability assay in PANC-1 cells (compound alone, + 100 ng/ml TNFa, + 300 ng/ml TRAIL). Format: cell-based.
Setting [1] is: Homo sapiens, PANC-1, compound alone, Tables 6-10, read-out: IC50 (μM) in cell viability assay in PANC-1 cells: Compound alone.
[2] abbreviates: with 100 ng/ml TNFa, Tables 6-10, read-out: IC50 (μM) in cell viability assay in PANC-1 cells: Compound + 100 ng/ml TNFa.
Where [3] appears, read: with 300 ng/ml TRAIL, Tables 6-10, read-out: IC50 (μM) in cell viability assay in PANC-1 cells: Compound + 300 ng/ml TRAIL.
Where [4] appears, read: Homo sapiens, PANC-1, compound alone, Tables 15-18, read-out: IC50 (uM) in cell viability assay in PANC-1 cells: Cmpnd alone.
[5] abbreviates: with 100 ng/ml TNFa, Tables 15-18, read-out: IC50 (uM) in cell viability assay in PANC-1 cells: Cmpnd + 100 ng/ml TNFa.
The mark [6] stands for this setting: with 300 ng/ml TRAIL, Tables 15-18, read-out: IC50 (uM) in cell viability assay in PANC-1 cells: Cmpnd + 300 ng/ml TRAIL.
Setting [7] is: PANC-1 cells, + 100 ng/ml TNFa, read-out: IC50 (uM) in cell viability assay in PANC-1 cells, Cmpnd + 100 ng/ml TNFa.
The mark [8] stands for this setting: PANC-1 cells, + 300 ng/ml TRAIL, read-out: IC50 (uM) in cell viability assay in PANC-1 cells, Cmpnd + 300 ng/ml TRAIL.

Read-outs that look alike come from different tables or passages of the source. Bounds are passed on as bounds.

For `CN[C@@H](C)C(=O)N[C@H](C(=O)N1CCC[C@H]1C(=O)N[C@H](C)c1ccccc1)[C@H](C)NC(=O)c1ccc(C(=O)N[C@@H](C)[C@H](NC(=O)[C@H](C)NC)C(=O)N2CCC[C@H]2C(=O)N[C@H](C)c2ccccc2)cc1` [Compound 114], the IC50 by setting is: under setting [1], greater than 1 µM; under setting [2], 0.199 µM; under setting [3], 0.184 µM.

`CN[C@@H](C)C(=O)N[C@@H](CCCCNC(=O)NCCCC[C@H](NC(=O)[C@H](C)NC)C(=O)N1C[C@@H](Oc2ccccc2)C[C@H]1C(=O)N[C@@H]1CCCc2ccccc21)C(=O)N1C[C@@H](Oc2ccccc2)C[C@H]1C(=O)N[C@@H]1CCCc2ccccc21` [Compound P2-37]: the IC50 is greater than 1 µM under setting [4], 0.174 µM under setting [5] and 0.527 µM under setting [6].

With `CN[C@@H](C)C(=O)N[C@H](C(=O)N1CCC[C@H]1CN(CC#CC#CCN(CCc1ccccc1)C[C@@H]1CCCN1C(=O)[C@@H](NC(=O)[C@H](C)NC)C(C)(C)C)CCc1ccccc1)C(C)(C)C` [Compound P4-20], the IC50 reads like this: under setting [4], greater than 1 µM; under setting [5], 0.061 µM; under setting [6], 0.041 µM.

In the case of `CN[C@@H](C)C(=O)NC(C(=O)N1C[C@@H](NC(=O)c2cccc(C(=O)N[C@H]3CC(C(=O)N[C@H](C)c4cccc5ccccc45)N(C(=O)[C@@H](NC(=O)[C@H](C)NC)C(C)(C)C)C3)c2)CC1C(=O)NC(C)c1cccc2ccccc12)C(C)(C)C` (some centres unmarked) [Compound 41], the IC50 is greater than 1 µM under setting [1], 0.452 µM under setting [2] and 0.434 µM under setting [3].

With `CN[C@@H](C)C(=O)N[C@H](C(=O)N1C[C@@H](NC(=O)C2CCCC(C(=O)N[C@H]3C[C@@H](C(=O)N[C@H](C)c4ccccc4)N(C(=O)[C@@H](NC(=O)[C@H](C)NC)C(C)(C)C)C3)C2)C[C@H]1C(=O)N[C@H](C)c1ccccc1)C(C)(C)C` (some centres unmarked) [Compound P3-102], the IC50 by setting is: under setting [7], 0.017 µM; under setting [8], 0.023 µM; (PANC-1 cells, compound alone, read-out: IC50 (uM) in cell viability assay in PANC-1 cells, Cmpnd alone) greater than 1 µM.

For `CN[C@@H](C)C(=O)NC(C(=O)N1C[C@@H](NC(=O)c2cccc(C(=O)N[C@H]3CC(C(=O)N[C@H](CO)Cc4ccccc4)N(C(=O)[C@@H](NC(=O)[C@H](C)NC)C(C)(C)C)C3)c2)CC1C(=O)N[C@H](CO)Cc1ccccc1)C(C)(C)C` (some centres unmarked) [Compound 43], the IC50 reads like this: under setting [1], greater than 1 µM; under setting [2], 0.05 µM; under setting [3], 0.048 µM.

As to `CN[C@@H](C)C(=O)N[C@H](C(=O)N1C[C@@H](NC(=O)c2cccc(C(=O)N[C@H]3C[C@@H](C(=O)N[C@@H]4CCCc5ccc(Br)cc54)N(C(=O)[C@@H](NC(=O)[C@H](C)NC)C(C)(C)C)C3)c2)C[C@H]1C(=O)N[C@@H]1CCCc2ccc(Br)cc21)C(C)(C)C` (single isomer, unassigned) [Compound 62], the IC50 under setting [1] is greater than 1 µM, the IC50 under setting [2] stood at 0.107 µM and the IC50 under setting [3] came to 0.099 µM.

Consider `CN[C@@H](C)C(=O)N[C@H](C(=O)N[C@@H](CCNC(=O)c1cccc(C(=O)N[C@H]2C[C@@H](C(=O)N[C@@H]3CCCc4ccccc43)N(C(=O)[C@@H](NC(=O)[C@H](C)NC)C(C)(C)C)C2)c1)C(=O)N[C@@H]1CCCc2ccccc21)C(C)(C)C` [Compound 169], for which the IC50 under setting [1] is greater than 1 µM, the IC50 under setting [2] was found to be 0.01 µM and the IC50 under setting [3] was 0.028 µM.

As to `CN[C@@H](C)C(=O)N[C@H](C(=O)N1CCC[C@H]1CN1CCC[C@H]1C(c1ccccc1)c1ccccc1)[C@@H](C)OCC#CC#CCO[C@H](C)[C@H](NC(=O)[C@H](C)NC)C(=O)N1CCC[C@H]1CN1CCC[C@H]1C(c1ccccc1)c1ccccc1` [Compound 81], the IC50 runs as follows: under setting [1], greater than 1 µM; under setting [2], 0.155 µM; under setting [3], 0.196 µM.

Turning to `CN[C@@H](C)C(=O)N[C@H](C(=O)N[C@@H](CCNC(=O)c1cccc(C(=O)N[C@H]2C[C@@H](C(=O)N[C@@H]3CCCc4ccccc43)N(C(=O)[C@@H](NC(=O)[C@H](C)NC)C3CCCCC3)C2)c1)C(=O)N[C@H](C)C(C)C)C(C)C` [Compound 181], the IC50 is greater than 1 µM under setting [1], 0.037 µM under setting [2] and 0.072 µM under setting [3].

Regarding `CN[C@@H](C)C(=O)N[C@H](C(=O)N1C[C@@H](NC(=O)c2cccc(C(=O)N[C@H]3C[C@@H](C(=O)N[C@H](C)c4ccccc4)N(C(=O)[C@@H](NC(=O)[C@H](CO)NC)C(C)(C)C)C3)c2)C[C@H]1C(=O)N[C@@H]1CCCc2ccccc21)C(C)(C)C` [Compound 173], the IC50 by setting is: under setting [1], greater than 1 µM; under setting [2], 0.01 µM; under setting [3], 0.019 µM.

`CN[C@@H](C)C(=O)N[C@H](C(=O)N1CCC[C@H]1Cn1cnnc1Cc1ccccc1)[C@@H](C)OCC#CC#CCO[C@H](C)[C@H](NC(=O)[C@H](C)NC)C(=O)N1CCC[C@H]1Cn1cnnc1Cc1ccccc1` [Compound 80]: the IC50 under setting [1] was greater than 1 µM, the IC50 under setting [2] is greater than 1 µM and the IC50 under setting [3] was greater than 1 µM.

Turning to `CN[C@@H](C)C(=O)N[C@H](C(=O)N1CCC[C@H]1Cn1nnnc1Sc1ccccc1)[C@@H](C)OCC#Cc1cccc(C#CCO[C@@H](C)[C@@H](NC(=O)[C@@H](C)NC)C(=O)N2CCC[C@@H]2Cn2nnnc2Sc2ccccc2)c1` [Compound 116], the IC50 was greater than 1 µM under setting [1], 0.0046 µM under setting [2] and 0.0059 µM under setting [3].

With `CN[C@@H](C)C(=O)N[C@@H](CCC(=O)Nc1ccc(C#Cc2ccc(NC(=O)CC[C@H](NC(=O)[C@H](C)NC)C(=O)N3CCC[C@H]3C(=O)N[C@@H]3CCCc4ccccc43)cc2)cc1)C(=O)N1CCC[C@H]1C(=O)N[C@@H]1CCCc2ccccc21` [Compound P3-98], the IC50 is greater than 1 µM (Homo sapiens, PANC-1 cells, compound alone, read-out: IC50 (uM) in cell viability assay in PANC-1 cells, Cmpnd alone); 0.01 µM under setting [7]; 0.012 µM under setting [8].

On to `CC[C@H](NC)C(=O)N[C@H](C(=O)N[C@@H](CCNC(=O)c1ccc2cc(C(=O)N[C@H]3C[C@@H](C(=O)N[C@@H]4CCCc5ccccc54)N(C(=O)[C@@H](NC(=O)[C@H](C)NC)C(C)(C)C)C3)ccc2c1)C(=O)N[C@H](C)C(C)C)C1CCCCC1` [Compound H-11], for which, under setting [4], the IC50 was greater than 1 µM.

Take `CN[C@@H](C)C(=O)N[C@H](C(=O)N1CCC[C@H]1C(=O)N[C@H]1c2ccccc2C[C@H]1OCCCCCCO[C@@H]1Cc2ccccc2[C@@H]1NC(=O)[C@@H]1CCCN1C(=O)[C@@H](NC(=O)[C@H](C)NC)C(C)(C)C)C(C)(C)C` [Compound 120]: under setting [1], the IC50 was greater than 1 µM.

As to `CN[C@@H](C)C(=O)N[C@H](C(=O)N1C[C@@H](NC(=O)c2cc(C(=O)O)cc(C(=O)N[C@H]3C[C@@H](C(=O)N[C@@H]4CCCc5ccccc54)N(C(=O)[C@@H](NC(=O)[C@H](C)NC)C(C)(C)C)C3)c2)C[C@H]1C(=O)N[C@@H]1CCCc2ccccc21)C(C)(C)C` [Compound 127], the IC50 is greater than 1 µM under setting [1], 0.032 µM under setting [2] and 0.028 µM under setting [3].

For the molecule `CN[C@@H](C)C(=O)N[C@@H](CCCCCC[C@H](NC(=O)[C@H](C)NC)C(=O)N[C@H]1c2ccccc2C[C@@H]1NC(=O)c1cc2ccccc2cc1OC)C(=O)N[C@H]1c2ccccc2C[C@@H]1NC(=O)c1cc2ccccc2cc1OC` [Compound 58], the IC50 by setting is: under setting [1], greater than 1 µM; under setting [2], greater than 1 µM; under setting [3], greater than 1 µM.

On to `CN[C@@H](C)C(=O)N[C@H](C(=O)N1C[C@@H](NC(=O)c2cccc(C(=O)N[C@H]3C[C@@H](C(=O)NCCc4ccc(N)cc4)N(C(=O)[C@@H](NC(=O)[C@H](C)NC)C(C)(C)C)C3)c2)C[C@H]1C(=O)NCCc1ccc(N)cc1)C(C)(C)C` [Compound 4], for which the IC50 by setting is: under setting [1], greater than 1 µM; under setting [2], greater than 1 µM; under setting [3], 0.739 µM.

For the origin of these results see patent publication US20130344026A1, “Dimeric Smac Mimetics” (priority 2009, published 2013).
